Reference: ChEMBL document CHEMBL5150067 (J Med Chem, 2022)

Experiments:
[1] = Inhibition of Hedgehog-signalling dependent purmorphamine induced osteoblast differentiation in mouse C3H 10T1/2 cells assessed as residual activity by measuring ALP expression at 10 uM incubated for 96 hrs by CDP-Star luminogenic substrate based assay relative to control; assay type: functional
[2] = Inhibition of Hedgehog-signalling dependent purmorphamine induced osteoblast differentiation in mouse C3H 10T1/2 cells assessed as reduction in ALP expression incubated for 96 hrs by CDP-Star luminogenic substrate based assay; assay type: functional, cell-based; settings: C3H 10T1/2, 96 h
[3] = molecular target: T1, Aryl hydrocarbon receptor (Mus musculus, UniProt P30561); experiment: Activation of AhR in purmorphamine-treated mouse C3H 10T1/2 cells assessed as translocation of AhR from cytoplasm to nucleus at 1 nM incubated for 24 hrs by immunostaining based analysis; assay type: cell-based; settings: c3h 10t1/2, 24 h, 0.001 µM
T1 sequence (P30561 whole entry): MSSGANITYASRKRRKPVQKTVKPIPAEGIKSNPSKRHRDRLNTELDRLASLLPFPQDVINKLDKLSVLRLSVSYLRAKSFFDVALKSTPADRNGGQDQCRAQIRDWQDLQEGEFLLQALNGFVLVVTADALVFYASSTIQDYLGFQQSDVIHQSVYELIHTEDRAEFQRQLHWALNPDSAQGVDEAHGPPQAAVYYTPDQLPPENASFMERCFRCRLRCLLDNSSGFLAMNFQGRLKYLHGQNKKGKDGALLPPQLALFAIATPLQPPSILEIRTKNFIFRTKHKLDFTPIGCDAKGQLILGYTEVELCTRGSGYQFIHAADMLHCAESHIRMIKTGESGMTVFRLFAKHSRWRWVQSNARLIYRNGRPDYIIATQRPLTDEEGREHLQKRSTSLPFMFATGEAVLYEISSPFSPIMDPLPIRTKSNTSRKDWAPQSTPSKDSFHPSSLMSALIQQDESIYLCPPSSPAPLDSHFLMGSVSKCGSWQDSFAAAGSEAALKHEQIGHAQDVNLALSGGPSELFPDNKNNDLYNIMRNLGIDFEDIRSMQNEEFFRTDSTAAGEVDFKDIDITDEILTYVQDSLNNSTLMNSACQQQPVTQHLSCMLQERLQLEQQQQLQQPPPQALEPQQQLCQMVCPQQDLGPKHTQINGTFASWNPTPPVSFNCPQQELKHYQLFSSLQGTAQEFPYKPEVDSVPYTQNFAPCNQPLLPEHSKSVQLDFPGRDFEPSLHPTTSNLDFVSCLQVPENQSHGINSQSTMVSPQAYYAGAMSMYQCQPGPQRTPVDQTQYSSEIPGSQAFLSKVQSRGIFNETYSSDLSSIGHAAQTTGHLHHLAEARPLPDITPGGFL

[4] = molecular target: T1, Aryl hydrocarbon receptor; experiment: Activation of AhR in purmorphamine-treated mouse C3H 10T1/2 cells assessed as upregulation of Cyp1B1 mRNA levels measured after 96 hrs by RT-qPCR analysis; assay type: cell-based; settings: c3h 10t1/2, 96 h, DDE = dose-dependent effect, dose 0.001-1 nM

Row | SMILES | Activity [1] [%] | IC50 [2] [nM] | further results
1 | O=C1c2ccc(Cl)c(F)c2C[C@H]2c3ccccc3CCN12 | 67.2 |  | 
2 | O=C1c2ccccc2C[C@H]2c3ccccc3CCN12 | 100 |  | 
3 | O=C1c2ccc(Cl)c(Cl)c2C[C@H]2c3ccccc3CCN12 | 36 | 1.1 | 
4 | O=C1c2ccc(I)cc2C[C@H]2c3ccccc3CCN12 | 57.8 |  | 
5 | COc1cc2c(cc1Cl)C[C@H]1c3ccccc3CCN1C2=O | 13.4 | 0.038 | 
6 | O=C1c2ccccc2C[C@H]2c3ccccc3CN12 | 29.2 |  | 
7 | O=C1c2cc(Br)c(Cl)cc2C[C@H]2c3ccccc3CCN12 |  |  | Activity [3]: Active; Activity [4]: Dde
8 | O=C1c2cccc(Cl)c2C[C@H]2c3ccccc3CCN12 | 53 |  | 
9 | O=C1c2ccc(Cl)cc2C[C@@H]2c3ccccc3CCN12 | 27.4 | 850 | 
10 | COc1cc2c(cc1F)CCN1C(=O)c3ccccc3C[C@@H]21 | 127 |  | 
11 | O=C1c2ccc(Cl)cc2C[C@H]2c3ccccc3CCN12 | 30.4 | 1.2 | 
12 | COc1cc2c(cc1OC)C(=O)N1CCc3cc(OC)c(OC)cc3[C@@H]1C2 | 55.2 |  | 
13 | CC(C)c1ccc2c(c1)C[C@H]1c3ccccc3CCN1C2=O | 90.1 |  | 
14 | O=C1c2cc(Br)c(Cl)c(Br)c2C[C@H]2c3ccccc3CCN12 | 27.9 | 0.36 | 
15 | O=C1c2ccc(C(F)(F)F)cc2C[C@H]2c3ccccc3CCN12 | 33.1 | 0.7 | 
16 | COc1cc2c(cc1OC)[C@@H]1Cc3ccccc3C(=O)N1CC2 | 96.5 |  | 
17 | O=C1c2cc(Cl)cc(Cl)c2C[C@H]2c3ccccc3CCN12 | 53.2 |  | 
18 | COc1ccc2c(c1)C[C@H]1c3ccccc3CCN1C2=O | 114 |  | 
19 | Cc1ccc2c(c1)C[C@H]1c3ccccc3CCN1C2=O | 93.2 |  | 
20 | O=C1c2cc(I)c(Cl)cc2C[C@H]2c3ccccc3CCN12 | 30.7 | 0.004 | 
21 | O=C1c2ccc(Br)cc2C[C@H]2c3ccccc3CCN12 | 44.2 | 4.2 | 
22 | O=C1c2ccccc2C[C@H]2c3ccc(Cl)cc3CCN12 | 87 |  | 
23 | O=C1c2ccc(F)cc2C[C@H]2c3ccccc3CCN12 | 61.2 |  | 
24 | O=C1c2ccccc2C[C@H]2c3ccccc3CCCN12 | 134 |  | 
